Results taken from patent US20240368092A1, “2,4-Dihydro-3H-1,2,4-Triazol-3-One P2X7 Antagonists” (Breye Therapeutics ApS, priority 2021, published 2024).

How the values were obtained:
Assay type in all cases: cell-based
[1] = biological target: T1, human P2X7 channel (Homo sapiens, UniProt Q99572); assay: human P2X7 channel assay by automated patch-clamp (QPatch 16X); details: HEK-293 cells expressing P2X7; current evoked by 100 microM BzATP; whole-cell, held at -80 mV; read-out: human Q-Patch (activity range)
T1 construct: expressed in transfected cells; host or cells: HEK-293
T1 sequence (Q99572 1-595): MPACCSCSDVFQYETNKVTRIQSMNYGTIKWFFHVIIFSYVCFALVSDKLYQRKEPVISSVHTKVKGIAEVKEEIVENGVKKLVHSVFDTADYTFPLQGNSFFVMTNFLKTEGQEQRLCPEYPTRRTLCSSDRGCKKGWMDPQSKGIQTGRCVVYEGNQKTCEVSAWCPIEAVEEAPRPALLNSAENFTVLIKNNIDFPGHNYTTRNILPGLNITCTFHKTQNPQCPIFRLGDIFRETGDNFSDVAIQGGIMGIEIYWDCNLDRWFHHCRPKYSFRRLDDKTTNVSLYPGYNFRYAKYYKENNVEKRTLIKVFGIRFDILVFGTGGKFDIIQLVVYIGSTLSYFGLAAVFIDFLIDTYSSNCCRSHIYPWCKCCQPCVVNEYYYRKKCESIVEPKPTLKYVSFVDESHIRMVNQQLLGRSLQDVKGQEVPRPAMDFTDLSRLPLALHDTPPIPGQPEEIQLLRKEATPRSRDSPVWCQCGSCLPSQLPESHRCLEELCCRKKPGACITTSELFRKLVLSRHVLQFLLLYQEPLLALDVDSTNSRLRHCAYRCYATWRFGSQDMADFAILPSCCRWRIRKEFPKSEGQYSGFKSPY
In short: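 Whole-cell patch clamp on HEK-293 cells expressing P2X7, room temperature, held at −80 mV, CsF internal and NaCl external (pH 7.4). Currents evoked by 100 microM BzATP, four controls then with compound at 1, 10, 100 and 1000 nM; peak inward current normalized, IC50 from dose-response fit, reported as potency bins.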

[2] = biological target: T2, humanP2X7 (Homo sapiens, UniProt Q99572); assay: P2X7 channel calcium-influx assay (Fluo-8, FLIPR TETRA), human P2X7; details: HEK-293 cells stably transfected with P2X7; Bz-ATP at EC80; low divalent cation buffer; read-out: humanP2X7 (activity range)
T2 construct: expressed in transfected cells; host or cells: HEK-293
T2 sequence (Q99572 1-595): T1 sequence (Q99572 1-595)
In short: (§1)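 HEK-293 cells stably expressing the respective species' P2X7, Fluo-8 NW loaded 1 h at RT in low divalent buffer (0.3 mM Ca2+, 0 mM Mg2+). Compound preincubated 5 min, then Bz-ATP at EC80; FLIPR calcium influx over 3 min. IC50 from % inhibition relative to reference antagonist A438079, reported as potency bins.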

[3] = biological target: T3, mouseP2X7 (Mus musculus, UniProt Q9Z1M0); assay: P2X7 channel calcium-influx assay (Fluo-8, FLIPR TETRA), mouse P2X7; details: HEK-293 cells stably transfected with P2X7; Bz-ATP at EC80; low divalent cation buffer; read-out: mouseP2X7 (activity range)
T3 construct: expressed in transfected cells; host or cells: HEK-293
T3 sequence (Q9Z1M0 1-595): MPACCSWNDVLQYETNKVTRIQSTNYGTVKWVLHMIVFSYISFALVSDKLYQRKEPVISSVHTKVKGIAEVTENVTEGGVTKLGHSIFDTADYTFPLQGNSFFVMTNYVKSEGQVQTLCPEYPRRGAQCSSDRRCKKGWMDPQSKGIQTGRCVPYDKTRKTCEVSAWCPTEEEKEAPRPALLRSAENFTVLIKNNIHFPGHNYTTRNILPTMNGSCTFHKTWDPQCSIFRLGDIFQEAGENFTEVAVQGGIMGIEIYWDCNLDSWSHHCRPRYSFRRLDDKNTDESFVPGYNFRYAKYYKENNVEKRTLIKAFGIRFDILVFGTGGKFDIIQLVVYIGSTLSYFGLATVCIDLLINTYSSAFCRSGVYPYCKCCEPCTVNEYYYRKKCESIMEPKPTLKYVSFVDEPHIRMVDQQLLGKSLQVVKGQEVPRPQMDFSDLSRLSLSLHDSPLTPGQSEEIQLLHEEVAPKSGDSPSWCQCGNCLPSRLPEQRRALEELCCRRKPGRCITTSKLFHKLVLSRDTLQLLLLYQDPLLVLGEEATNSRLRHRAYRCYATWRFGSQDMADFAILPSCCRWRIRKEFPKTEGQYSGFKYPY
In short: as §1

[4] = biological target: T4, ratP2X7 (Rattus norvegicus, UniProt Q64663); assay: P2X7 channel calcium-influx assay (Fluo-8, FLIPR TETRA), rat P2X7; details: HEK-293 cells stably transfected with P2X7; Bz-ATP at EC80; low divalent cation buffer; read-out: ratP2X7 (activity range)
T4 construct: expressed in transfected cells; host or cells: HEK-293
T4 sequence (Q64663 1-595): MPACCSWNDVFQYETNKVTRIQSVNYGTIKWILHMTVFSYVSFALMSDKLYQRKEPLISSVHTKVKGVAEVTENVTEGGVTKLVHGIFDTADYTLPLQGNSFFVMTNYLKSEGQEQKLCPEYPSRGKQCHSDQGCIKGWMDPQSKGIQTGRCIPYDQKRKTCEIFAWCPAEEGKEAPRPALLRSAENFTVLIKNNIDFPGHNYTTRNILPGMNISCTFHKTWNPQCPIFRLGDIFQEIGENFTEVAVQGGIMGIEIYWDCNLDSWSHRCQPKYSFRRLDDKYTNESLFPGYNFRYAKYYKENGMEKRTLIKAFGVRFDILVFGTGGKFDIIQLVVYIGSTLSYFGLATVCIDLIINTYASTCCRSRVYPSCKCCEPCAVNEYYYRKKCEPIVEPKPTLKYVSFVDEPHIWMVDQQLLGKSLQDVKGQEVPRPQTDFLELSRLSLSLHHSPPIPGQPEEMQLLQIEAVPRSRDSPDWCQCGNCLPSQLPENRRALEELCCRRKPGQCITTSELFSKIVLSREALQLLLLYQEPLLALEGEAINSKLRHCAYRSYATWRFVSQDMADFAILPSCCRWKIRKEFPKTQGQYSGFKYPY
In short: as §1

Structure (SMILES) | IC50 [1] [µM] | IC50 [2] [µM] | IC50 [3] [µM] | IC50 [4] [µM]
Cn1nc(Cc2ccc(F)cc2Cl)n(CC2CCC3(CC2)CC3)c1=O [Example 35, 5-(2-chloro-4-fluorobenzyl)-2-methyl-4-(spiro[2.5]octan-6-ylmethyl)-2,4-dihydro-3H-1,2,4-triazol-3-one] | 0.1 to 1 | 0.2 to 1 | 1 to 10 | < 0.2
Cn1nc(Cc2ccc(F)cc2Cl)n(CCC2CCC(F)(F)CC2)c1=O [Example 36, 5-(2-chloro-4-fluorobenzyl)-4-(2-(4,4-difluorocyclohexyl)ethyl)-2-methyl-2,4-dihydro-3H-1,2,4-triazol-3-one] | 0.1 to 1 | 0.2 to 1 | 1 to 10 | 0.2 to 1
Cn1nc(Cc2ccccc2F)n(CC2CCCCCC2)c1=O [Example 37, 4-(cycloheptylmethyl)-5-(2-fluorobenzyl)-2-methyl-2,4-dihydro-3H-1,2,4-triazol-3-one] | 0.1 to 1 | 0.2 to 1 | 0.2 to 1 | < 0.2
Cn1nc(CC2CCCCC2)n(Cc2cc(-c3ncc(F)cn3)ccc2Cl)c1=O [Example 38, 4-(2-chloro-5-(5-fluoropyrimidin-2-yl)benzyl)-5-(cyclohexylmethyl)-2-methyl-2,4-dihydro-3H-1,2,4-triazol-3-one] | 1 to 10 | 0.2 to 1 | 1 to 10 | 0.2 to 1
Cn1nc(Cc2ccccc2C(F)(F)F)n(CCC2CCC(F)(F)CC2)c1=O [Example 39, 4-(2-(4,4-difluorocyclohexyl)ethyl)-2-methyl-5-(2-(trifluoromethyl)benzyl)-2,4-dihydro-3H-1,2,4-triazol-3-one] | 0.1 to 1 | 0.2 to 1 | 1 to 10 | 0.2 to 1
Cn1nc(Cc2ccccc2C(F)(F)F)n(CC2CCC(C(F)(F)F)CC2)c1=O (stereo not drawn) [Example 40, 2-methyl-5-(2-(trifluoromethyl)benzyl)-4-((4-(trifluoromethyl)cyclohexyl)methyl)-2,4-dihydro-3H-1,2,4-triazol-3-one] | 0.1 to 1 | < 0.2 | 1 to 10 | < 0.2
Cn1nc(Cc2ccc(F)cc2Cl)n(CCC2CCC(C)(C)CC2)c1=O [Example 41, 5-(2-chloro-4-fluorobenzyl)-4-(2-(4,4-dimethylcyclohexyl)ethyl)-2-methyl-2,4-dihydro-3H-1,2,4-triazol-3-one] | 1 to 10 | 0.2 to 1 | 10 to 30 | 1 to 10
Cn1nc(Cc2ccccc2Cl)n(CC2CCC(F)(F)CC2)c1=O [Example 42, 5-(2-chlorobenzyl)-4-((4,4-difluorocyclohexyl)methyl)-2-methyl-2,4-dihydro-3H-1,2,4-triazol-3-one] | 0.01 to 0.1 | < 0.2 | 0.2 to 1 | < 0.2
O=c1n(CC2CC2)nc(Cc2c(F)cccc2Cl)n1CC1CCC(F)(F)CC1 [Example 43, 5-(2-chloro-6-fluorobenzyl)-2-(cyclopropylmethyl)-4-((4,4-difluorocyclohexyl)methyl)-2,4-dihydro-3H-1,2,4-triazol-3-one] | 0.01 to 0.1 | < 0.2 | < 0.2 | < 0.2
O=c1n(CC(F)(F)F)nc(Cc2c(F)cccc2Cl)n1CC1CCC(F)(F)CC1 [Example 44, 5-(2-chloro-6-fluorobenzyl)-4-((4,4-difluorocyclohexyl)methyl)-2-(2,2,2-trifluoroethyl)-2,4-dihydro-3H-1,2,4-triazol-3-one] | < 0.01 | < 0.2 | < 0.2 | < 0.2
Cn1nc(Cc2ccccc2F)n(CCC2CCC(C)(C)CC2)c1=O [Example 45, 4-(2-(4,4-dimethylcyclohexyl)ethyl)-5-(2-fluorobenzyl)-2-methyl-2,4-dihydro-3H-1,2,4-triazol-3-one] | 1 to 10 | 1 to 10 | 10 to 30 | 1 to 10
Cn1nc(Cc2ccccc2F)n(CCC2CCC(F)(F)CC2)c1=O [Example 46, 4-(2-(4,4-difluorocyclohexyl)ethyl)-5-(2-fluorobenzyl)-2-methyl-2,4-dihydro-3H-1,2,4-triazol-3-one] | 1 to 10 | 1 to 10 | 1 to 10 | 0.2 to 1
Cn1nc(Cc2ccccc2F)n(CC2CCC3(CC2)CC3)c1=O [Example 47, 5-(2-fluorobenzyl)-2-methyl-4-(spiro[2.5]octan-6-ylmethyl)-2,4-dihydro-3H-1,2,4-triazol-3-one] | 0.1 to 1 | 0.2 to 1 | 1 to 10 | < 0.2
Cn1nc(Cc2ccccc2C(F)(F)F)n(CC2CCC3(CC2)CC3)c1=O [Example 48, 2-methyl-4-(spiro[2.5]octan-6-ylmethyl)-5-(2-(trifluoromethyl)benzyl)-2,4-dihydro-3H-1,2,4-triazol-3-one] | 0.1 to 1 | 0.2 to 1 | 1 to 10 | < 0.2
Cn1nc(Cc2ccccc2C(F)(F)F)n(CCC2CCC(C)(C)CC2)c1=O [Example 49, 4-(2-(4,4-dimethylcyclohexyl)ethyl)-2-methyl-5-(2-(trifluoromethyl)benzyl)-2,4-dihydro-3H-1,2,4-triazol-3-one] | 1 to 10 | 1 to 10 | 10 to 30 | 10 to 30
O=c1n(Cc2ccccc2)nc(Cc2c(F)cccc2Cl)n1CC1CCC(F)(F)CC1 [Example 50, 2-benzyl-5-(2-chloro-6-fluorobenzyl)-4-((4,4-difluorocyclohexyl)methyl)-2,4-dihydro-3H-1,2,4-triazol-3-one] | < 0.01 | < 0.2 | < 0.2 | < 0.2
Cn1nc(Cc2ccccc2F)n(CC2CCC(C(F)(F)F)CC2)c1=O (stereo not drawn) [Example 51, 5-(2-fluorobenzyl)-2-methyl-4-((4-(trifluoromethyl)cyclohexyl)methyl)-2,4-dihydro-3H-1,2,4-triazol-3-one] | 0.1 to 1 | 0.2 to 1 | 1 to 10 | < 0.2
Cn1nc(Cc2ccc(F)cc2Cl)n(CC2CCC(C(F)(F)F)CC2)c1=O (stereo not drawn) [Example 52, 5-(2-chloro-4-fluorobenzyl)-2-methyl-4-((4-(trifluoromethyl)cyclohexyl)methyl)-2,4-dihydro-3H-1,2,4-triazol-3-one] | 0.1 to 1 | 0.2 to 1 | 1 to 10 | < 0.2
